Reference: the kinase profiling compilation of Christmann-Franck et al. (2016)

Columns and labels:
TSSK1B (human) = TSSK1B (human) (UniProt Q9BXA7); assay: SelectScreen, TR FRET
MAPK13 (human) = MAPK13 (human) (UniProt O15264); assay: SelectScreen, TR FRET
NUAK1 (human) = NUAK1 (human) (UniProt O60285); assay: SelectScreen, TR FRET
PRKCI (human) = PRKCI (human) (UniProt P41743); assay: SelectScreen, TR FRET
SPHK1 (human) = SPHK1 (human) (UniProt Q9NYA1); assay: SelectScreen, TR FRET
MAPK1 (human) = MAPK1 (human) (UniProt P28482); assay: SelectScreen, TR FRET
PRKCZ (human) = PRKCZ (human) (UniProt Q05513); assay: SelectScreen, TR FRET
NTRK3 (human) = NTRK3 (human) (UniProt Q16288); assay: SelectScreen, TR FRET
SGK1 (human) = SGK1 (human) (UniProt O00141); assay: SelectScreen, TR FRET
[1] = system: RAF1 (human), P04049 [Y340D/Y341D]; assay: SelectScreen, TR FRET
AKT3 (human) = AKT3 (human) (UniProt Q9Y243); assay: SelectScreen, TR FRET
CHEK1 (human) = CHEK1 (human) (UniProt O14757); assay: SelectScreen, TR FRET
HCK (human) = HCK (human) (UniProt P08631); assay: SelectScreen, TR FRET
AKT1 (human) = AKT1 (human) (UniProt P31749); assay: SelectScreen, TR FRET
CLK2 (human) = CLK2 (human) (UniProt P49760); assay: SelectScreen, TR FRET
CAMK4 (human) = CAMK4 (human) (UniProt Q16566); assay: SelectScreen, TR FRET
NEK4 (human) = NEK4 (human) (UniProt P51957); assay: SelectScreen, TR FRET
PLK1 (human) = PLK1 (human) (UniProt P53350); assay: SelectScreen, TR FRET
FGFR2 (human) = FGFR2 (human) (UniProt P21802); assay: SelectScreen, TR FRET
MAPKAPK2 (human) = MAPKAPK2 (human) (UniProt P49137); assay: SelectScreen, TR FRET
EPHA3 (human) [2] = target: EPHA3 (human) (UniProt P29320); assay: SelectScreen, TR FRET
MAP2K1 (human) = MAP2K1 (human) (UniProt Q02750); assay: SelectScreen, TR FRET
TEK (human) = TEK (human) (UniProt Q02763); assay: SelectScreen, TR FRET
PIM1 (human) = PIM1 (human) (UniProt P11309); assay: SelectScreen, TR FRET
CSF1R (human) = CSF1R (human) (UniProt P07333); assay: SelectScreen, TR FRET
NTRK1 (human) = NTRK1 (human) (UniProt P04629); assay: SelectScreen, TR FRET
BMX (human) = BMX (human) (UniProt P51813); assay: SelectScreen, TR FRET
EPHA3 (human) [3] = target: EPHA3 (human) (UniProt P29320); assay: radiometric filter-binding kinase assay, Kinaseprofiler; conditions: compound 1.0 µM; ATP 120 µM

Chain of CSF1R (human) (P07333 whole entry, looked up): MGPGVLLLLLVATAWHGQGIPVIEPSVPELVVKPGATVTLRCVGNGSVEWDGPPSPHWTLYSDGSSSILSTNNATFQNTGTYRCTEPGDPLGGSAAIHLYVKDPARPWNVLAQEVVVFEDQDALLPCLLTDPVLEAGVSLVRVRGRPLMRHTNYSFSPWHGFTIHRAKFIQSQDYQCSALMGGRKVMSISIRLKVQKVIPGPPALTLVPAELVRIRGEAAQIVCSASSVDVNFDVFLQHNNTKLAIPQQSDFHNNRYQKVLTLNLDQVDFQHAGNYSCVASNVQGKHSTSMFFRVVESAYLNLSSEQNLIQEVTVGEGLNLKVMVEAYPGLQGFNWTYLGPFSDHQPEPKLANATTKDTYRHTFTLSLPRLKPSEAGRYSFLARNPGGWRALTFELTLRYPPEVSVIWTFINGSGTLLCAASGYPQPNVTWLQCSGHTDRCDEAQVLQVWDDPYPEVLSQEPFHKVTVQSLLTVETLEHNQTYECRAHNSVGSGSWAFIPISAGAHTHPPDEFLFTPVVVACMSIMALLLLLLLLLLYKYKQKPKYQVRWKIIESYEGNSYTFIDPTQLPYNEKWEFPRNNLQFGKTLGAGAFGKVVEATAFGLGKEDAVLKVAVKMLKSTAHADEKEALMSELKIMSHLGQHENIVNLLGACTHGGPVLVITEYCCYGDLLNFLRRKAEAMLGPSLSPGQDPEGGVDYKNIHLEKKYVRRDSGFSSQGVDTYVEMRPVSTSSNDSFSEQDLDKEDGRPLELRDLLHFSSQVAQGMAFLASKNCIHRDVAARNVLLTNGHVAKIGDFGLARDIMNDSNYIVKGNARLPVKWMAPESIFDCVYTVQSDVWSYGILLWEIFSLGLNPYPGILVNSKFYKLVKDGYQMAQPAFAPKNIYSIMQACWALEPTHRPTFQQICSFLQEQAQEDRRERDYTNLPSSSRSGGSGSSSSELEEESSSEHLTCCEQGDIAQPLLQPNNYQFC
Chain of PIM1 (human) (P11309 whole entry, looked up): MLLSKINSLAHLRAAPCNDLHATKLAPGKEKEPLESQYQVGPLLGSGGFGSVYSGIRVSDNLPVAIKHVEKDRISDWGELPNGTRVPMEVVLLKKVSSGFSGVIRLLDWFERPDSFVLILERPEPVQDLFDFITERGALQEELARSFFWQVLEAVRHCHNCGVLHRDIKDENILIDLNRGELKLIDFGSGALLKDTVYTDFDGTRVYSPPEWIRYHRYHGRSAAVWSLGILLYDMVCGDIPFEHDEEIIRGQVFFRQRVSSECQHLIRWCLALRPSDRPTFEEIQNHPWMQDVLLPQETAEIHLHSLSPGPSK
Chain of TSSK1B (human) (Q9BXA7 whole entry, looked up): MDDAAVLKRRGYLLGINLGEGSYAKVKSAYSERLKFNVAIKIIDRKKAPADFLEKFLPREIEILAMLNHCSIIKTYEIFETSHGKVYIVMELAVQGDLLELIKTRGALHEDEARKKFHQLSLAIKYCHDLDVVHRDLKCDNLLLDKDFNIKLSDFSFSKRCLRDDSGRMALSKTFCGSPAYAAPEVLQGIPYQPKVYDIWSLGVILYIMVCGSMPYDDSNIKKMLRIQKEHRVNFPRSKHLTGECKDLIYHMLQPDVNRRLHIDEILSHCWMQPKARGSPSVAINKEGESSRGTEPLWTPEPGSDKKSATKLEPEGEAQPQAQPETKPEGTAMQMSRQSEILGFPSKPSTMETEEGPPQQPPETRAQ
Chain of MAPK13 (human) (O15264 whole entry, looked up): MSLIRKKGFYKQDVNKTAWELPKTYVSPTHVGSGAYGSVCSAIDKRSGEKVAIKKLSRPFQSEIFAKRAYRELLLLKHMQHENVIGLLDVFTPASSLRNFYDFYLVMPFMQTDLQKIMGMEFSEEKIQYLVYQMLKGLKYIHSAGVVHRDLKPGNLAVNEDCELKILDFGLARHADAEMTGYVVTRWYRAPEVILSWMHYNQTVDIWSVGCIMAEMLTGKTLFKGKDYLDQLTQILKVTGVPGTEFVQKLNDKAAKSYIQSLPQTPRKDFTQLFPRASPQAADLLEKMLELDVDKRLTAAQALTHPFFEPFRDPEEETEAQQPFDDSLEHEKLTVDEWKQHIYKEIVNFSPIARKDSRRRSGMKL
Chain of TEK (human) (Q02763 whole entry, looked up): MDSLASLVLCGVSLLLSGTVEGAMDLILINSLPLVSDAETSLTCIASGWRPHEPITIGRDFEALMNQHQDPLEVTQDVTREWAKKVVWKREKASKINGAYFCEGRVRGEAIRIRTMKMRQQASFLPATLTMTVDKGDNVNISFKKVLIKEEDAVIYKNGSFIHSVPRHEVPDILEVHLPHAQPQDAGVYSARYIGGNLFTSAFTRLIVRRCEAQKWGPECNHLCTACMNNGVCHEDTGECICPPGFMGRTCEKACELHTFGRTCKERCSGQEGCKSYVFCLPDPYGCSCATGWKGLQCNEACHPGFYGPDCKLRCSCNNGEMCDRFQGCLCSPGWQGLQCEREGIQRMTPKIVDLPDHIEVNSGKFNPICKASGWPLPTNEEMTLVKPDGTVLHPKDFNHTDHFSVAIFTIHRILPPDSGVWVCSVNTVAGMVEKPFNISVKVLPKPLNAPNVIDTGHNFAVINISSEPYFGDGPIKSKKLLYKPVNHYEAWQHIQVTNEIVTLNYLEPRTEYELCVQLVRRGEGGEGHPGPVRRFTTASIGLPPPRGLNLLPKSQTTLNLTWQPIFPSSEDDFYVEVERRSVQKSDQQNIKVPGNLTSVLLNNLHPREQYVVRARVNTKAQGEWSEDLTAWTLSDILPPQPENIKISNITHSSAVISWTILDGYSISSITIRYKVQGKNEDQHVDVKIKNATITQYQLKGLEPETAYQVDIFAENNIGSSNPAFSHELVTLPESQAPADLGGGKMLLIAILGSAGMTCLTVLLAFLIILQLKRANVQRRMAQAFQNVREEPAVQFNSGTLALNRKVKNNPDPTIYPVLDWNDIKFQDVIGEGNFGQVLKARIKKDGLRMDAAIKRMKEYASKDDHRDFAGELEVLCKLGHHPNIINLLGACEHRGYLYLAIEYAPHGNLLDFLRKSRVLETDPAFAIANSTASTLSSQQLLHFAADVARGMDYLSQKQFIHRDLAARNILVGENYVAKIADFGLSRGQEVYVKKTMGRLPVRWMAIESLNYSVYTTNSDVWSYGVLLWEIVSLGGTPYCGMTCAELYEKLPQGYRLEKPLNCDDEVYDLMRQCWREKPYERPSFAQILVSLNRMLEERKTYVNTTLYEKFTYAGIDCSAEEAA
Chain of RAF1 (human), P04049 [Y340D/Y341D] (P04049 whole entry Y340D/Y341D, looked up): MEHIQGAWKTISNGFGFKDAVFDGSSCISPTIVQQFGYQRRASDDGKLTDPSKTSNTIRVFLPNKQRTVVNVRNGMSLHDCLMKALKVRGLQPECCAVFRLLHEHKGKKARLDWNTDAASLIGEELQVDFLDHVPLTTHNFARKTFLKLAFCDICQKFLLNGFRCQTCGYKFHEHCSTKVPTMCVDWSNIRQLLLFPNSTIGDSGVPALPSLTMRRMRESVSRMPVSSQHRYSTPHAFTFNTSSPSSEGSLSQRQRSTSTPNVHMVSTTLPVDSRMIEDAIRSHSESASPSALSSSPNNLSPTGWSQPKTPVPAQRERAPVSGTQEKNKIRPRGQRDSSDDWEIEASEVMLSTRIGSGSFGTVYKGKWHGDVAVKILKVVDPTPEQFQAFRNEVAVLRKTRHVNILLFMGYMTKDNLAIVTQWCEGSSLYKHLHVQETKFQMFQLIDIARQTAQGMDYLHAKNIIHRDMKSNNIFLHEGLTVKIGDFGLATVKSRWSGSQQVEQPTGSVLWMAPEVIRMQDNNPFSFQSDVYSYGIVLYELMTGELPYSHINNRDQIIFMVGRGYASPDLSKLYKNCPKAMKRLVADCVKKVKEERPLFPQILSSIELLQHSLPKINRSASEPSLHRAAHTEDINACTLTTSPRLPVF
Chain of NTRK3 (human) (Q16288 whole entry, looked up): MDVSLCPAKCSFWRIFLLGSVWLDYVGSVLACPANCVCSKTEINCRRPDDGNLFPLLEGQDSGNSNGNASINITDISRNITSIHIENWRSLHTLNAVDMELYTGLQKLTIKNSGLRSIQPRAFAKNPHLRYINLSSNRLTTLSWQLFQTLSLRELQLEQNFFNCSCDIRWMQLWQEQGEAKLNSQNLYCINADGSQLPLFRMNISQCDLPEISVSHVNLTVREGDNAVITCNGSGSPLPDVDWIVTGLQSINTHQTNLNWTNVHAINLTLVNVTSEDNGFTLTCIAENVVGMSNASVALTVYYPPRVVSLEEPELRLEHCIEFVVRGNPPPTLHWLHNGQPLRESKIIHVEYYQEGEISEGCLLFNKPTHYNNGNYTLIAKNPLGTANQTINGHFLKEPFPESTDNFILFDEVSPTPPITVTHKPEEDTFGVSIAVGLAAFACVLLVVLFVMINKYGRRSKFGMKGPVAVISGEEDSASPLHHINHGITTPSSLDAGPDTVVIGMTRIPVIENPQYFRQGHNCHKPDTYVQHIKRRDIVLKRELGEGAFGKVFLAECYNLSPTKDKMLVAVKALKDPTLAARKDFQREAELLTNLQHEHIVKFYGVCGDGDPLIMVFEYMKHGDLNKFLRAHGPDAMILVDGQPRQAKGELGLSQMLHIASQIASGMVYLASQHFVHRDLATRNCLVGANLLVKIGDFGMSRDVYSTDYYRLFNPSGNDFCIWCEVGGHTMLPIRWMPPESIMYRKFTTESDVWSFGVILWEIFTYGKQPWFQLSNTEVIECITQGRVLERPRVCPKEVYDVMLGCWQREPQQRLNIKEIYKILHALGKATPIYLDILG
Chain of MAPK1 (human) (P28482 whole entry, looked up): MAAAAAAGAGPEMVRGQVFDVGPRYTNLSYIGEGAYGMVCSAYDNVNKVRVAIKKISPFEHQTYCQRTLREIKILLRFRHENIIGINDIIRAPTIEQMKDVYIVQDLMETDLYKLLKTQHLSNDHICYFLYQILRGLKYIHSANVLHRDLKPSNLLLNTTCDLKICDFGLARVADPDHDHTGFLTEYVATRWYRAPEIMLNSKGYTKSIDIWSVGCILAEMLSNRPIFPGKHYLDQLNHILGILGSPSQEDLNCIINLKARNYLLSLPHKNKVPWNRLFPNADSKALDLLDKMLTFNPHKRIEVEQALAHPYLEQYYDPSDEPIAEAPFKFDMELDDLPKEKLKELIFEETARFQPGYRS

## Cn1cc(-c2cnc3ccc4ccc(CC(=O)NCc5ccccn5)cc4c(=O)c3c2)cn1
TSSK1B (human); compound 0.1 µM
  inhibition: 15.5%
TSSK1B (human); compound 1.0 µM
  inhibition: 11.4%
TSSK1B (human); compound 10.0 µM
  inhibition: 24.9%
MAPK13 (human); compound 0.1 µM
  inhibition: 14.5%
MAPK13 (human); compound 1.0 µM
  inhibition: 15.8%
MAPK13 (human); compound 10.0 µM
  inhibition: 10%
NUAK1 (human); compound 0.1 µM
  inhibition: -10.5%
NUAK1 (human); compound 1.0 µM
  inhibition: 13.6%
NUAK1 (human); compound 10.0 µM
  inhibition: 63.9%
PRKCI (human); compound 0.1 µM
  inhibition: 10.5%
PRKCI (human); compound 1.0 µM
  inhibition: 10.2%
PRKCI (human); compound 10.0 µM
  inhibition: 8.8%
SPHK1 (human); compound 0.1 µM
  inhibition: -3.4%
SPHK1 (human); compound 1.0 µM
  inhibition: -4.1%
SPHK1 (human); compound 10.0 µM
  inhibition: -2.1%
MAPK1 (human); compound 0.1 µM
  inhibition: 12.7%
MAPK1 (human); compound 1.0 µM
  inhibition: 8.8%
MAPK1 (human); compound 10.0 µM
  inhibition: -8.1%
PRKCZ (human); compound 0.1 µM
  inhibition: 9.2%
PRKCZ (human); compound 1.0 µM
  inhibition: 9.9%
PRKCZ (human); compound 10.0 µM
  inhibition: 6.9%
NTRK3 (human); compound 0.1 µM
  inhibition: 18.8%
NTRK3 (human); compound 1.0 µM
  inhibition: 34.5%
NTRK3 (human); compound 10.0 µM
  inhibition: 77.1%
SGK1 (human); compound 0.1 µM
  inhibition: 10.9%
SGK1 (human); compound 1.0 µM
  inhibition: 17.4%
SGK1 (human); compound 10.0 µM
  inhibition: 49.8%
[1]; compound 0.1 µM
  inhibition: 26.2%
[1]; compound 1.0 µM
  inhibition: 25.4%
[1]; compound 10.0 µM
  inhibition: 7%
AKT3 (human); compound 0.1 µM
  inhibition: 11.3%
AKT3 (human); compound 1.0 µM
  inhibition: 10.6%
AKT3 (human); compound 10.0 µM
  inhibition: 14.6%
CHEK1 (human); compound 0.1 µM
  inhibition: 23.2%
CHEK1 (human); compound 1.0 µM
  inhibition: -1.2%
CHEK1 (human); compound 10.0 µM
  inhibition: 14.2%
HCK (human); compound 0.1 µM
  inhibition: 16.7%
HCK (human); compound 1.0 µM
  inhibition: 19.1%
HCK (human); compound 10.0 µM
  inhibition: 51.8%
AKT1 (human); compound 0.1 µM
  inhibition: 17.2%
AKT1 (human); compound 1.0 µM
  inhibition: 5.5%
AKT1 (human); compound 10.0 µM
  inhibition: 9.1%
CLK2 (human); compound 0.1 µM
  inhibition: 9.2%
CLK2 (human); compound 1.0 µM
  inhibition: 22.8%
CLK2 (human); compound 10.0 µM
  inhibition: 69.8%
CAMK4 (human); compound 0.1 µM
  inhibition: 13.6%
CAMK4 (human); compound 1.0 µM
  inhibition: 10.4%
CAMK4 (human); compound 10.0 µM
  inhibition: 0.8%
NEK4 (human); compound 0.1 µM
  inhibition: 10.8%
NEK4 (human); compound 1.0 µM
  inhibition: 13.5%
NEK4 (human); compound 10.0 µM
  inhibition: 37.8%
PLK1 (human); compound 0.1 µM
  inhibition: 8.9%
PLK1 (human); compound 1.0 µM
  inhibition: 11.2%
PLK1 (human); compound 10.0 µM
  inhibition: 10%
FGFR2 (human); compound 0.1 µM
  inhibition: 14.2%
FGFR2 (human); compound 1.0 µM
  inhibition: 33.5%
FGFR2 (human); compound 10.0 µM
  inhibition: 74%
MAPKAPK2 (human); compound 0.1 µM
  inhibition: 9.5%
MAPKAPK2 (human); compound 1.0 µM
  inhibition: 7.8%
MAPKAPK2 (human); compound 10.0 µM
  inhibition: 19.8%
EPHA3 (human) [2]; compound 0.1 µM
  inhibition: -1.7%
EPHA3 (human) [2]; compound 1.0 µM
  inhibition: 5.2%
EPHA3 (human) [2]; compound 10.0 µM
  inhibition: 16.4%
MAP2K1 (human); compound 0.1 µM
  inhibition: 25.7%
MAP2K1 (human); compound 1.0 µM
  inhibition: 23.8%
MAP2K1 (human); compound 10.0 µM
  inhibition: 13.5%
TEK (human); compound 0.1 µM
  inhibition: -0.9%
TEK (human); compound 1.0 µM
  inhibition: 4.6%
TEK (human); compound 10.0 µM
  inhibition: 45.3%
PIM1 (human); compound 0.1 µM
  inhibition: 6%
PIM1 (human); compound 1.0 µM
  inhibition: 5.4%
PIM1 (human); compound 10.0 µM
  inhibition: 23.6%
CSF1R (human); compound 0.1 µM
  inhibition: 15.7%
CSF1R (human); compound 1.0 µM
  inhibition: 25.8%
CSF1R (human); compound 10.0 µM
  inhibition: 58.3%
NTRK1 (human); compound 0.1 µM
  inhibition: 18.9%
NTRK1 (human); compound 1.0 µM
  inhibition: 37.2%
NTRK1 (human); compound 10.0 µM
  inhibition: 68.9%
BMX (human); compound 0.1 µM
  inhibition: 7.2%
BMX (human); compound 1.0 µM
  inhibition: 7.7%
BMX (human); compound 10.0 µM
  inhibition: -77.3%

## CN(C)S(=O)(=O)Nc1ccc2ccc3ncc(-c4cnn(C)c4)cc3c(=O)c2c1
EPHA3 (human) [3]
  residual activity: 96%
